Experimental data from patent US9440901B2, “Method for producing reduced coenzyme Q10” (KANEKA CORPORATION, priority 2012, dated 2016).

Assays:
[1] = solubility of the crystal forms of reduced coenzyme Q10; assay type: physicochemical; conditions: compared to Form I crystal
[2] = background statement; cited from earlier work

SMILES | solubility compared with conventional reduced coenzyme Q10 crystals (Form I) [1] | oral absorbability compared to oxidized coenzyme Q10 [2]
COc1c(O)c(C)c(C/C=C(\C)CC/C=C(\C)CC/C=C(\C)CC/C=C(\C)CC/C=C(\C)CC/C=C(\C)CC/C=C(\C)CC/C=C(\C)CC/C=C(\C)CCC=C(C)C)c(O)c1OC [Form II, reduced coenzyme Q10] | lower solubility | 
COc1c(O)c(C)c(C/C=C(\C)CC/C=C(\C)CC/C=C(\C)CC/C=C(\C)CC/C=C(\C)CC/C=C(\C)CC/C=C(\C)CC/C=C(\C)CC/C=C(\C)CCC=C(C)C)c(O)c1OC [reduced coenzyme Q10] |  | high oral absorbability
